From EP4692094A1 (Beijing Konruns Pharmaceutical Co., Ltd., priority 2023, dated 2024) come the findings set out here.

For this assay, the target named is T1, KAT6A (Homo sapiens, UniProt Q92794).
T1 construct: purchased active motife (Active Motif) 81223
T1 sequence (Q92794 whole entry): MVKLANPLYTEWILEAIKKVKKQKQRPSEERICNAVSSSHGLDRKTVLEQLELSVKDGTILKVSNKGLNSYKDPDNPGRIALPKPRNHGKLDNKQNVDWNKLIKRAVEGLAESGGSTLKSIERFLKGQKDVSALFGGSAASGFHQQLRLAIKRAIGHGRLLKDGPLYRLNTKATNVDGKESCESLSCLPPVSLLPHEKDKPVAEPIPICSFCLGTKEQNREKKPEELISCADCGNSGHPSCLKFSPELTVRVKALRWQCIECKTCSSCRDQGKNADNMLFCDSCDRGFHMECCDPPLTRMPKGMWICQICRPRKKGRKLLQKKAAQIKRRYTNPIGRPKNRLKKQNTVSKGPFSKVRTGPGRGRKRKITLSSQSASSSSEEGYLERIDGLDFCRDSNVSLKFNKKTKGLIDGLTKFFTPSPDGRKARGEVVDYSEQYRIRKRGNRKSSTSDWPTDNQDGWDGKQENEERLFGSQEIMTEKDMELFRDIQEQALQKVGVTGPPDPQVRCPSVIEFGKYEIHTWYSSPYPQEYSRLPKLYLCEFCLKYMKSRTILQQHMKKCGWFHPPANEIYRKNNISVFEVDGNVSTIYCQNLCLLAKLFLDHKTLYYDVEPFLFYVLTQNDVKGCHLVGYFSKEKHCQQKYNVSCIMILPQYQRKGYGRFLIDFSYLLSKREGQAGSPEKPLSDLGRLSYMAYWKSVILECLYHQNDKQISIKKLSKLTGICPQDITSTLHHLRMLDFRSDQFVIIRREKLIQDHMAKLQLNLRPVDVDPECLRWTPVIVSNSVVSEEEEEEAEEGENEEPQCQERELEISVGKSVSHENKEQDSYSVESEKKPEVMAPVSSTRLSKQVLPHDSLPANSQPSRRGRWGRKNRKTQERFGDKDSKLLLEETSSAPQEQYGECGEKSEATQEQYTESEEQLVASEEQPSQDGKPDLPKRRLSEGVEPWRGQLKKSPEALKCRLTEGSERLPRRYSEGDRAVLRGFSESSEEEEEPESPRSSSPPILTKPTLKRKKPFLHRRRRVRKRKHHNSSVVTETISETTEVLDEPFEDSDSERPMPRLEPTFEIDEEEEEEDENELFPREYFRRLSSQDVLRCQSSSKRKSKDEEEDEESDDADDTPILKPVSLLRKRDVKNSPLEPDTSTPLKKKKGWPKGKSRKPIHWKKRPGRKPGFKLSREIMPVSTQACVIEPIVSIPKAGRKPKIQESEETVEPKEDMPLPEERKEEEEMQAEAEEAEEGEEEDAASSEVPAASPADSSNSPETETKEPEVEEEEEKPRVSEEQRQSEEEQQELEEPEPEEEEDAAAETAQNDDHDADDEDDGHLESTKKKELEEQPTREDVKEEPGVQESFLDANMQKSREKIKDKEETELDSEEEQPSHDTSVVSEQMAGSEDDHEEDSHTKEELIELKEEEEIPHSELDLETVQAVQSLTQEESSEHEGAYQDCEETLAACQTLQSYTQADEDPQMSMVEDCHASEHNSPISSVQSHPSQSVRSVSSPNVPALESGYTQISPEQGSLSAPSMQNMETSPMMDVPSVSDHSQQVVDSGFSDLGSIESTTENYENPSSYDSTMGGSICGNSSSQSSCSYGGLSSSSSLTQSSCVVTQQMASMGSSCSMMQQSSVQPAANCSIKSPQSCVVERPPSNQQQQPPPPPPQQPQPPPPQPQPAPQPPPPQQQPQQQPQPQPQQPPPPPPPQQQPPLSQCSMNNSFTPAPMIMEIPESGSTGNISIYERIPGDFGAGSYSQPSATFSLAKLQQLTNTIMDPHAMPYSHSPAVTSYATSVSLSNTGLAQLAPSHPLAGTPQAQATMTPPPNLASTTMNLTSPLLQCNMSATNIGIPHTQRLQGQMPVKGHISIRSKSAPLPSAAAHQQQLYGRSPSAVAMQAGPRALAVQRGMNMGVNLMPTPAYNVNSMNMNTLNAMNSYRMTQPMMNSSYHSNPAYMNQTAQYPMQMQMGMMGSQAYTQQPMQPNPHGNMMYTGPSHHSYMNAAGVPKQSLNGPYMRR
In words: Enzymatic activity assay for KAT6A acetyltransferase (TR-FRET, acetylation of histone substrate H3). Type of assay: biochemical. On the procedure: The acetylation effect of KAT6A on histone substrate H3 was determined using the TR-FRET (time-resolved fluorescence resonance energy transfer) method.
• 1) The compounds prepared in the examples of the present disclosure were each dissolved in dimethylsulfoxide to give solutions at a concentration of 10 mmol/L, and then the solutions were diluted to 0.2 mmol/L, i.e., 1 µL of the compound was added to 49 µL of DMSO, and 3-fold dilution was performed to give 10 concentrations. • 2) 50 nL of the test compounds (example compounds) were transferred to 384 reaction plates using Echo, two replicates for each compound, and the plates were centrifuged at a rotation speed of 1000 rpm for 1 min, the final concentration of dimethylsulfoxide (DMSO) being 0.5%. • 3) 2.5 µL of the reaction mixtures obtained in step 2 was added to the 384 reaction plates in step 2), and the plates were centrifuged at 1000 rpm for 1 min and incubated at 25 °C for 10 min. • 4) 2.5 µL of Bio-H3&AcCOA (acetyl-CoA) reaction solution was added to the 384 reaction plates in step 3), and the plates were centrifuged at a rotation speed of 1000 rpm for 1 min and incubated at 25 °C for 90 min. • 5) 5 µL of Eu-Ab& Ulight-SA detection solution was added to the 384 reaction plates in step 4), and the plates were centrifuged at 1000 rpm for 1 min and incubated at 25 °C for 60 min. • 6) The HTRF […] signals were read using a BMG high-throughput drug-screening multi-mode microplate reader.
The acetylation level of the histone H3 was analyzed by the GraphPad Prism 8 software. The reading of the negative control (0.5% DMSO wells) was set as 0% inhibition rate, and the reading of the positive control (wells with the highest concentration of the control compound) was set as 100% inhibition rate. The inhibition rates were calculated, and then IC50 values (half maximal inhibitory concentration) of test compounds were obtained by using a software nonlinear fitting formula; [formula]
Datapositive control: mean of positive control well values; Datanegative control: mean of negative control well values. Table 3. Enzymatic inhibitory activity of example compounds
Background: In TR-FRET formats the signal depends on donor and acceptor labels being close together.
For `COc1nc(Cn2cccn2)cc2onc(NS(=O)(=O)c3ccc4oc(C)nc4c3)c12` [Example 52, N-(6-((1H-Pyrazol-1-yl)methyl)-4-methoxyisoxazolo[4,5-c]pyridin-3-yl)-2-methylbenzo[d]oxazole-5-sulfonamide], the IC50 (as a rule, the point on the concentration scale where inhibition reaches its midpoint) is 34.3 nM.

With `COc1nc(C(F)n2cccn2)cc2onc(NS(=O)(=O)c3cccc4c3OCC4)c12` (stereo not shown) [Example 18, N-(6-(Fluoro(1H-pyrazol-1-yl)methyl)-4-methoxyisoxazolo[4,5-c]pyridin-3-yl)-2,3-dihydrobenzofuran-7-sulfonamide], the IC50 came out at 7.23 nM.

In the case of `COc1cc2c(cc1S(=O)(=O)Nc1noc3cc(Cn4cccn4)nc(OC)c13)OC(C)(C)C2` [Example 105, N-(6-((1H-pyrazol-1-yl)methyl)-4-methoxyisoxazolo[4,5-c]pyridin-3-yl)-5-methoxy-2,2-dimethyl-2,3-dihydrobenzofuran-6-sulfonamide], half-maximal inhibition (IC50) was put at 2.18 nM.

`COc1ccc2c(c1S(=O)(=O)Nc1noc3cc(Cn4cccn4)nc(OC)c13)OC(C)(C)C2` [Example 100, N-(6-((1H-pyrazol-1-yl)methyl)-4-methoxyisoxazolo[4,5-c]pyridin-3-yl)-6-methoxy-2,2-dimethyl-3H-benzofuran-7-sulfonamide] yielded an IC50 of 1.06 nM.

Regarding `[2H]C1Oc2cc(S(=O)(=O)Nc3noc4cc(Cn5cccn5)nc(OC)c34)c(OC)cc2C1[2H]` (stereo not shown) [Example 103, N-(6-((1H-pyrazol-1-yl)methyl)-4-methoxyisoxazolo[4,5-c]pyridin-3-yl)-5-methoxy-2,3-dihydrobenzofuran-6-sulfonamide-2,3-d2], the IC50 turned out to be 1.86 nM.

In turn, `COc1c(S(=O)(=O)Nc2noc3cc(Cn4cccn4)nc(OC)c23)ccc2ccoc12` [Example 86, N-(6-((1H-Pyrazol-1-yl)methyl)-4-methoxyisoxazolo[4,5-c]pyridin-3-yl)-7-methoxybenzofuran-6-sulfonamide] gave an IC50 of 10 nM.

As to `COc1ccc(S(=O)(=O)Nc2noc3cc(Cn4cccn4)nc(OC)c23)c2c1CCO2` [Example 72, N-(6-((1H-Pyrazol-1-yl)methyl)-4-methoxyisoxazolo[4,5-c]pyridin-3-yl)-4-methoxy-2,3-dihydrobenzofuran-7-sulfonamide], the IC50 was found to be 5.1 nM.

`C#Cc1ccc(S(=O)(=O)Nc2noc3cc(Cn4cccn4)nc(OC)c23)c2occc12` [Example 96, N-(6-((1H-pyrazol-1-yl)methyl)-4-methoxyisoxazolo[4,5-c]pyridin-3-yl)-4-ethynyl-benzofuran-7-sulfonamide]: half-maximal inhibition (IC50) required 6.67 nM.

Turning to `COc1nc(Cn2cccn2)cc2onc(NS(=O)(=O)c3cccc4cccnc34)c12` [Example 46], the IC50 is 1.67 nM.

With `C#Cc1ccc(S(=O)(=O)Nc2noc3cc(Cn4cccn4)nc(OC)c23)c2c1CCO2` [Example 33, N-(6-((1H-Pyrazol-1-yl)methyl)-4-methoxyisoxazolo[4,5-c]pyridin-3-yl)-4-ethynyl-2,3-dihydrobenzofuran-7-sulfonamide], the midpoint of inhibition, the IC50, lay at 3.13 nM.

`COc1ccc2ccn(C)c2c1S(=O)(=O)Nc1noc2cc(Cn3cccn3)nc(OC)c12` [Example 56, N-(6-((1H-Pyrazol-1-yl)methyl)-4-methoxyisoxazolo[4,5-c]pyridin-3-yl)-6-methoxy-1-methyl-1H-indole-7-sulfonamide] showed an IC50 of 16.3 nM.

As for `COc1cc2c(c(OC)c1S(=O)(=O)Nc1noc3cc(Cn4cccn4)nc(OC)c13)CCO2` [Example 97, N-(6-((1H-pyrazol-1-yl)methyl)-4-methoxyisoxazolo[4,5-c]pyridin-3-yl)-4,6-dimethoxy-2,3-dihydrobenzofuran-5-sulfonamide], the concentration for half-maximal inhibition (IC50) is 0.95 nM.

In turn, `COc1nc(Cc2cocn2)cc2onc(NS(=O)(=O)c3cccc4c3OCCO4)c12` [Example 31, N-(4-Methoxy-6-(oxazol-4-ylmethyl)isoxazolo[4,5-c]pyridin-3-yl)-2,3-dihydrobenzo[b][1,4]dioxine-5-sulfonamide] gave a half-maximal inhibitory concentration (IC50) of 68.6 nM.

`COc1cc2c(cc1S(=O)(=O)Nc1noc3cc(Cn4cccn4)nc(OC)c13)OCCC2` [Example 67, N-(6-((1H-Pyrazol-1-yl)methyl)-4-methoxyisoxazolo[4,5-c]pyridin-3-yl)-6-methoxy-3,4-dihydro-1H-benzopyran-7-sulfonamide] showed an IC50 of 1.31 nM.

Compound `COc1cc2c(cc1S(=O)(=O)Nc1noc3cc(Cn4nccn4)nc(OC)c13)CCCC2` [Example 34, N-(6-((2H-1,2,3-Triazol-2-yl)methyl)-4-methoxyisoxazolo[4,5-c]pyridin-3-yl)-3-methoxy-5,6,7,8-tetrahydronaphthalene-2-sulfonamide] returned a half-inhibitory concentration (IC50) of 12.6 nM.

In the case of `COc1nc(Cn2cccn2)cc2onc(NS(=O)(=O)c3cccc4c3OC(F)(F)O4)c12` [Example 51, N-(6-((1H-Pyrazol-1-yl)methyl)-4-methoxyisoxazolo[4,5-c]pyridin-3-yl)-2,2-difluorobenzodioxole-4-sulfonamide], the midpoint of inhibition, the IC50, lay at 18.2 nM.

Take `[2H]C([2H])(c1cc2onc(NS(=O)(=O)c3cc4c(cc3OC)CCO4)c2c(OC)n1)n1cccn1` [Example 104, N-(6-((1H-pyrazol-1-yl)methyl-d2)-4-methoxyisoxazolo[4,5-c]pyridin-3-yl)-5-methoxy-2,3-dihydrobenzofuran-6-sulfonamide]: half-maximal inhibition (IC50) was put at 1.77 nM.

`COc1ccc2c(c1S(=O)(=O)Nc1noc3cc(Cn4cccn4)nc(OC)c13)OC(C)C2` (stereo not shown) [Example 66, N-(6-((1H-Pyrazol-1-yl)methyl)-4-methoxyisoxazolo[4,5-c]pyridin-3-yl)-6-methoxy-2-methyl-2,3-dihvdrobenzofuran-7-sulfonamide] gave an IC50 of 1.22 nM.

Take `COc1cc(OC)c(S(=O)(=O)Nc2noc3cc(Cn4cccn4)nc(OC)c23)c2c1CCO2` [Example 98, N-(6-((1H-pyrazol-1-yl)methyl)-4-methoxyisoxazolo[4,5-c]pyridin-3-yl)-4,6-dimethoxy-2,3-dihydrobenzofuran-7-sulfonamide]: the IC50 was found to be 0.84 nM.

`COc1cc2occc2cc1S(=O)(=O)Nc1noc2cc(Cn3cccn3)nc(OC)c12` [Example 108, N-(6-((1H-pyrazol-1-yl)methyl)-4-methoxyisoxazolo[4,5-c]pyridin-3-yl)-6-methoxybenzofuran-5-sulfonamide] returned an IC50 of 1.26 nM.

`COc1cc2c(ccn2C)cc1S(=O)(=O)Nc1noc2cc(Cn3cccn3)nc(OC)c12` [Example 69, N-(6-((1H-Pyrazol-1-yl)methyl)-4-methoxyisoxazolo[4,5-c]pyridin-3-yl)-6-methoxy-1-methyl-1H-indole-5-sulfonamide] returned a half-inhibitory concentration (IC50) of 0.87 nM.

With `COc1cc2c(c(S(=O)(=O)Nc3noc4cc(Cn5cccn5)nc(OC)c34)c1)OCCC2` [Example 84, N-(6-((1H-Pyrazol-1-yl)methyl)-4-methoxyisoxazolo[4,5-c]pyridin-3-yl)-6-methoxy-3,4-dihydro-1H-benzopyran-8-sulfonamide], the IC50 turned out to be 1.21 nM.

In turn, `COc1c(S(=O)(=O)Nc2noc3cc(Cn4cccn4)nc(OC)c23)ccc2c1OCO2` [Example 87, N-(6-((1H-Pyrazol-1-yl)methyl)-4-methoxyisoxazolo[4,5-c]pyridin-3-yl)-4-methoxy-1,3-benzodioxole-5-sulfonamide] returned a half-maximal inhibitory concentration (IC50) of 2.67 nM.

Compound `COc1ccc(S(=O)(=O)Nc2noc3cc(Cn4cccn4)nc(OC)c23)c2c1C=CCO2` [Example 94, N-(6-((1H-Pyrazol-1-yl)methyl)-4-methoxyisoxazolo[4,5-c]pyridin-3-yl)-5-methoxy-2H-benzopyran-8-sulfonamide] returned a concentration for half-maximal inhibition (IC50) of 2.37 nM.

`COc1ccc2ccoc2c1S(=O)(=O)Nc1noc2cc(Cn3cc(F)cn3)nc(OC)c12` [Example 68, N-(6-((4-Fluoro-1H-pyrazol-1-yl)methyl)-4-methoxyisoxazolo[4,5-c]pyridin-3-yl)-6-methoxvbenzofuran-7-sulfonamide] gave a half-maximal inhibitory concentration (IC50) of 2.41 nM.

In turn, `COc1nc(Cn2cccn2)cc2onc(NS(=O)(=O)c3ccc4c(c3)CN(C)C(=O)O4)c12` [Example 54, N-(6-((1H-Pyrazol-1-yl)methyl)-4-methoxyisoxazolo[4,5-c]pyridin-3-yl)-3-methyl-2-oxo-3,4-dihydro-2H-benzoxazine-6-sulfonamide] came in with an IC50 of 110 nM.

Turning to `COc1nc(Cn2cccn2)cc2onc(NS(=O)(=O)c3cccc4ccn(C)c34)c12` [Example 49, N-(6-((1H-Pyrazol-1-yl)methyl)-4-methoxyisoxazolo[4,5-c]pyridin-3-yl)-1-methyl-1H-indole-7-sulfonamide], the IC50 turned out to be 67.8 nM.

For `COc1cc2c(cc1S(=O)(=O)Nc1noc3cc(Cn4cccn4)nc(OC)c13)CCC2` [Example 70, N-(6-((1H-Pyrazol-1-yl)methyl)-4-methoxyisoxazolo[4,5-c]pyridin-3-yl)-6-methoxy-2,3-dihydro-1H-indene-5-sulfonamide], the IC50 stood at 0.85 nM.
